# Test results: US7585460B2, “Method for inhibiting the biological acidification of water in contact with materials containing sulfur” (ENI S.p.A., priority 2003, dated 2009)
# What was measured:
# Thiobacilli (consortium) [1] = assay: Effect of different salts on acidification, TM medium with sulfur powder and inoculated mixed culture (Example 7); type: cell-based, Thiobacillus
# Description: The verification is aimed at discovering the effects deriving from the presence of different salts at varying concentrations on the same consortium.
# A series of 12 100 ml flasks containing 50 ml of TM medium (with 0.4 g of sulfur powder), was inoculated with 1 ml of mixed culture containing 10^8 cells/ml.
# • 3 control flasks containing TM and sulfur, with NaCl (0.16 M, 0.33 M, 0.56 M); • 3 flasks with TM, sulfur and Na2SO4 (0.12 M, 0.24 M, 0.56 M); • 3 flasks with TM, sulfur and KCl (0.13 M, 0.26 M, 0.56 M); • 3 flasks with TM, sulfur and KNO3 (0.09 M, 0.19 M, 0.56 M) The data collected are listed in Table 6.
# Thiobacilli (consortium) [2] = assay: as above; type: cell-based, Thiobacillus; details: salt 0.5 M, day 28
# [3] = tested on: Thiobacilli (microbial consortium); assay: Comparison of NaCl and SLS, TM medium with sulfur flowers and inoculated mixed culture (Example 6); type: cell-based, Thiobacillus; details: for O.D. / p.H.: C: 20 mg/l of SLS
# Description: The experiment was aimed at comparing the action of SLS, a known bacteriostatic for Thiobacilli, and Sodium Chloride on the same microbial consortium.
# A series of 6 100 ml flasks containing 50 ml of TM medium (with 0.4 g of sulfur flowers), were inoculated with 1 ml of mixed culture containing 10^8 cells/ml.
# • A—2 control flasks containing TM and sulfur, without NaCl; • B—2 flasks with TM, sulfur and 33 g/l of NaCl; • C—2 flasks with TM, sulfur and 20 mg/l of SLS (concentration used in literature as bacteriostatic) The pH values and the bacterial growth were measured over a period of 34 days, by means of the increase in the absorbance.
# Thiobacilli = details: bacteriostatic product; literature (Clark et al. 1998); cited from earlier work
structure (smiles),measurement,setting,value
[Cl-].[K+] [KCl],PH,"Thiobacilli (consortium) [1]; salt 0.13 M, day 0",6.0
same,PH,"Thiobacilli (consortium) [1]; salt 0.13 M, day 2",6.0
same,PH,"Thiobacilli (consortium) [1]; salt 0.13 M, day 6",4.5
same,PH,"Thiobacilli (consortium) [1]; salt 0.13 M, day 9",4.0
same,PH,"Thiobacilli (consortium) [1]; salt 0.13 M, day 12",3.5
same,PH,"Thiobacilli (consortium) [1]; salt 0.13 M, day 15",3.0
same,PH,"Thiobacilli (consortium) [1]; salt 0.13 M, day 18",3.0
same,PH,"Thiobacilli (consortium) [1]; salt 0.13 M, day 20",3.0
same,PH,"Thiobacilli (consortium) [1]; salt 0.13 M, day 24",2.5
same,PH,"Thiobacilli (consortium) [1]; salt 0.13 M, day 28",2.5
same,PH,"Thiobacilli (consortium) [1]; salt 0.13 M, day 30",2.4
same,PH,"Thiobacilli (consortium) [1]; salt 0.13 M, day 40",1.5
same,PH,"Thiobacilli (consortium) [1]; salt 0.26 M, day 0",6.0
same,PH,"Thiobacilli (consortium) [1]; salt 0.26 M, day 2",6.0
same,PH,"Thiobacilli (consortium) [1]; salt 0.26 M, day 6",5.5
same,PH,"Thiobacilli (consortium) [1]; salt 0.26 M, day 9",5.5
same,PH,"Thiobacilli (consortium) [1]; salt 0.26 M, day 12",5.5
same,PH,"Thiobacilli (consortium) [1]; salt 0.26 M, day 15",5.5
same,PH,"Thiobacilli (consortium) [1]; salt 0.26 M, day 18",5.2
same,PH,"Thiobacilli (consortium) [1]; salt 0.26 M, day 20",5.2
same,PH,"Thiobacilli (consortium) [1]; salt 0.26 M, day 24",5.0
same,PH,"Thiobacilli (consortium) [1]; salt 0.26 M, day 28",5.0
same,PH,"Thiobacilli (consortium) [1]; salt 0.26 M, day 30",5.0
same,PH,"Thiobacilli (consortium) [1]; salt 0.26 M, day 40",4.9
same,PH,"Thiobacilli (consortium) [1]; salt 0.56 M, day 0",6.0
same,PH,"Thiobacilli (consortium) [1]; salt 0.56 M, day 2",6.0
same,PH,"Thiobacilli (consortium) [1]; salt 0.56 M, day 6",6.0
same,PH,"Thiobacilli (consortium) [1]; salt 0.56 M, day 9",6.0
same,PH,"Thiobacilli (consortium) [1]; salt 0.56 M, day 12",6.0
same,PH,"Thiobacilli (consortium) [1]; salt 0.56 M, day 15",6.0
same,PH,"Thiobacilli (consortium) [1]; salt 0.56 M, day 18",6.0
same,PH,"Thiobacilli (consortium) [1]; salt 0.56 M, day 20",6.0
same,PH,"Thiobacilli (consortium) [1]; salt 0.56 M, day 24",6.0
same,PH,"Thiobacilli (consortium) [1]; salt 0.56 M, day 28",6.0
same,PH,"Thiobacilli (consortium) [1]; salt 0.56 M, day 30",6.0
same,PH,"Thiobacilli (consortium) [1]; salt 0.56 M, day 40",5.8
O=[N+]([O-])[O-].[K+] [KNO3],PH,Thiobacilli (consortium) [2],6.0
same,PH,"Thiobacilli (consortium) [1]; salt 0.09 M, day 0",6.0
same,PH,"Thiobacilli (consortium) [1]; salt 0.09 M, day 2",6.0
same,PH,"Thiobacilli (consortium) [1]; salt 0.09 M, day 6",3.8
same,PH,"Thiobacilli (consortium) [1]; salt 0.09 M, day 9",3.0
same,PH,"Thiobacilli (consortium) [1]; salt 0.09 M, day 12",3.0
same,PH,"Thiobacilli (consortium) [1]; salt 0.09 M, day 15",3.0
same,PH,"Thiobacilli (consortium) [1]; salt 0.09 M, day 18",3.0
same,PH,"Thiobacilli (consortium) [1]; salt 0.09 M, day 20",3.0
same,PH,"Thiobacilli (consortium) [1]; salt 0.09 M, day 24",3.0
same,PH,"Thiobacilli (consortium) [1]; salt 0.09 M, day 28",3.0
same,PH,"Thiobacilli (consortium) [1]; salt 0.09 M, day 30",3.0
same,PH,"Thiobacilli (consortium) [1]; salt 0.09 M, day 40",3.0
same,PH,"Thiobacilli (consortium) [1]; salt 0.19 M, day 0",6.0
same,PH,"Thiobacilli (consortium) [1]; salt 0.19 M, day 2",6.0
same,PH,"Thiobacilli (consortium) [1]; salt 0.19 M, day 6",4.8
same,PH,"Thiobacilli (consortium) [1]; salt 0.19 M, day 9",4.0
same,PH,"Thiobacilli (consortium) [1]; salt 0.19 M, day 12",4.0
same,PH,"Thiobacilli (consortium) [1]; salt 0.19 M, day 15",4.0
same,PH,"Thiobacilli (consortium) [1]; salt 0.19 M, day 18",4.0
same,PH,"Thiobacilli (consortium) [1]; salt 0.19 M, day 20",4.0
same,PH,"Thiobacilli (consortium) [1]; salt 0.19 M, day 24",4.0
same,PH,"Thiobacilli (consortium) [1]; salt 0.19 M, day 28",4.0
same,PH,"Thiobacilli (consortium) [1]; salt 0.19 M, day 30",3.3
same,PH,"Thiobacilli (consortium) [1]; salt 0.19 M, day 40",3.2
same,PH,"Thiobacilli (consortium) [1]; salt 0.5 M, day 0",6.0
same,PH,"Thiobacilli (consortium) [1]; salt 0.5 M, day 2",6.0
same,PH,"Thiobacilli (consortium) [1]; salt 0.5 M, day 6",6.0
same,PH,"Thiobacilli (consortium) [1]; salt 0.5 M, day 9",6.0
same,PH,"Thiobacilli (consortium) [1]; salt 0.5 M, day 12",6.0
same,PH,"Thiobacilli (consortium) [1]; salt 0.5 M, day 15",6.0
same,PH,"Thiobacilli (consortium) [1]; salt 0.5 M, day 18",6.0
same,PH,"Thiobacilli (consortium) [1]; salt 0.5 M, day 20",6.0
same,PH,"Thiobacilli (consortium) [1]; salt 0.5 M, day 24",6.0
same,PH,"Thiobacilli (consortium) [1]; salt 0.5 M, day 30",6.0
same,PH,"Thiobacilli (consortium) [1]; salt 0.5 M, day 40",5.8
O=S(=O)([O-])[O-].[Na+].[Na+] [Na2SO4],PH,"Thiobacilli (consortium) [1]; salt 0.12 M, day 0",6.0
same,PH,"Thiobacilli (consortium) [1]; salt 0.12 M, day 2",6.0
same,PH,"Thiobacilli (consortium) [1]; salt 0.12 M, day 6",3.5
same,PH,"Thiobacilli (consortium) [1]; salt 0.12 M, day 9",2.8
same,PH,"Thiobacilli (consortium) [1]; salt 0.12 M, day 12",2.8
same,PH,"Thiobacilli (consortium) [1]; salt 0.12 M, day 15",2.8
same,PH,"Thiobacilli (consortium) [1]; salt 0.12 M, day 18",2.5
same,PH,"Thiobacilli (consortium) [1]; salt 0.12 M, day 20",1.8
same,PH,"Thiobacilli (consortium) [1]; salt 0.12 M, day 24",1.8
same,PH,"Thiobacilli (consortium) [1]; salt 0.12 M, day 28",1.6
same,PH,"Thiobacilli (consortium) [1]; salt 0.12 M, day 30",1.6
same,PH,"Thiobacilli (consortium) [1]; salt 0.12 M, day 40",1.4
same,PH,"Thiobacilli (consortium) [1]; salt 0.24 M, day 0",6.0
same,PH,"Thiobacilli (consortium) [1]; salt 0.24 M, day 2",6.0
same,PH,"Thiobacilli (consortium) [1]; salt 0.24 M, day 6",4.5
same,PH,"Thiobacilli (consortium) [1]; salt 0.24 M, day 9",4.0
same,PH,"Thiobacilli (consortium) [1]; salt 0.24 M, day 12",3.5
same,PH,"Thiobacilli (consortium) [1]; salt 0.24 M, day 15",3.0
same,PH,"Thiobacilli (consortium) [1]; salt 0.24 M, day 18",2.8
same,PH,"Thiobacilli (consortium) [1]; salt 0.24 M, day 20",2.0
same,PH,"Thiobacilli (consortium) [1]; salt 0.24 M, day 24",2.0
same,PH,"Thiobacilli (consortium) [1]; salt 0.24 M, day 28",1.7
same,PH,"Thiobacilli (consortium) [1]; salt 0.24 M, day 30",1.5
same,PH,"Thiobacilli (consortium) [1]; salt 0.24 M, day 40",1.5
same,PH,"Thiobacilli (consortium) [1]; salt 0.56 M, day 0",6.0
same,PH,"Thiobacilli (consortium) [1]; salt 0.56 M, day 2",6.0
same,PH,"Thiobacilli (consortium) [1]; salt 0.56 M, day 6",6.0
same,PH,"Thiobacilli (consortium) [1]; salt 0.56 M, day 9",6.0
same,PH,"Thiobacilli (consortium) [1]; salt 0.56 M, day 12",6.0
same,PH,"Thiobacilli (consortium) [1]; salt 0.56 M, day 15",5.9
same,PH,"Thiobacilli (consortium) [1]; salt 0.56 M, day 18",5.9
same,PH,"Thiobacilli (consortium) [1]; salt 0.56 M, day 20",5.9
same,PH,"Thiobacilli (consortium) [1]; salt 0.56 M, day 24",5.9
same,PH,"Thiobacilli (consortium) [1]; salt 0.56 M, day 28",5.9
same,PH,"Thiobacilli (consortium) [1]; salt 0.56 M, day 30",5.9
same,PH,"Thiobacilli (consortium) [1]; salt 0.56 M, day 40",5.8
"CCCCCCCCCCCCOS(=O)(=O)[O-].[Na+] [SLS, Sodium Lauryl Sulfate, reference compound]",inhibition of the acidification of water in contact with elemental sulfur,"[3]; 33 g/l NaCl, 20 mg/l SLS",capable of inhibiting the acidification
same,O.D.,[3]; day 0,0.014
same,p.H.,[3]; day 0,6.0
same,O.D.,[3]; day 3,0.013
same,p.H.,[3]; day 3,4.5
same,O.D.,[3]; day 5,0.042
same,p.H.,[3]; day 5,4.5
same,O.D.,[3]; day 8,0.073
same,p.H.,[3]; day 8,4.0
same,O.D.,[3]; day 11,0.067
same,p.H.,[3]; day 11,4.0
same,O.D.,[3]; day 16,0.098
same,p.H.,[3]; day 16,3.8
same,O.D.,[3]; day 21,0.080
same,p.H.,[3]; day 21,3.8
same,O.D.,[3]; day 23,0.035
same,p.H.,[3]; day 23,3.8
same,O.D.,[3]; day 28,0.033
same,p.H.,[3]; day 28,3.2
same,O.D.,[3]; day 31,0.020
same,p.H.,[3]; day 31,3.2
same,reduction of corrosion of metallic containers used for transporting or containing sulfur,Thiobacilli,effective for reducing the corrosion
